# Columns and labels:
# T47D and MCF7 cells = assay: MTT cell viability assay; assay type: cell-based, human; settings: BYL719 for 5 days
# Description: When indicated, MCF7 or T47D cells were transduced with lentiviruses expressing empty vector (pLKO. 1) or an shRNA against KMT2D (pLKO. 1) (disclosed in Table 1) or shRNA against FOXA1, shFOXA1 #1 TRCN0000014882; shFOXA1 #2: TRCN0000014880; or shRNA against PBX1, shPBX1 #1: TRCN0000020390; shPBX1 #2: TRCN0000020391). When indicated, MCF7 cells were transduced with pTRIPZ vectors (TRE-RFP-miR30/shRNA-UBC-IRES-PURO) targeting PBX1 or FOXA1 knockdown upon doxycycline administration. When indicated, MCF7 cells were transduced with LT3REPIR (pRRL) vector (T3G-dsRED-mirE/shRNA-PGK-PURO-IRES-rtTA3) targeting KMT2D knockdown upon doxycycline administration. For lentiviral production, 293T cells were transfected with pCMV-VSVG, pCMV-dR8.2 and the plasmid of interest using lipofectamine 3000 according to the manufacture's protocol.
# BYL719 was obtained from the Stand Up to Cancer (SU2C) pharmacy. BYL719 was dissolved in DMSO for in vitro experiments. The MTT assay was used to measure cell viability. Briefly, 5000 cells were seeded in 96 well plates, treated with BYL719 for 5 days and assayed using 0.25% MTT (Sigma) and 50 mM sodium succinate (Sigma) for 3 hours. After the formazan crystals were dissolved with DMSO, the absorbance was measured at 570 nm of wavelength. Doxycycline was purchased from Sigma.
# T47D cells = assay: ER and FOXA1 ChIP-seq upon BYL719 treatment; assay type: cell-based, human
# Description: Cells were crosslinked with 1% paraformaldehyde added directly to the culture medium to a final concentration of 1% and incubated at room temperature for 15 minutes. The crosslinked cells were quenched with ice-cold glycine for 5 minutes, washed with PBS and collected. The cells were then lysed with SDS lysis buffer (10 ml of 1% SDS, 10 mM EDTA, 50 mM Tris-HCl, pH 8.1) containing protease and phosphatase inhibitors for 15 minutes prior to sonication. Cells were sonicated in 10-s pulses for a total of 10 min. […]
# Paired ends 36 bp sequencing was performed at the Genomics Core of Memorial Sloan Kettering Cancer Center using HiSeq (Illumina). Reads were first processed with Trimmomatic to remove the adaptor sequences and bases with quality scores below 20 and reads with less than 30 remaining bases were discarded^34. Trimmed reads were then aligned to hg19 human genome with the bowtie aligner^35. […] To find a set of peaks that are reproducible across the two biological replicates of a given cell condition, the per-replicate P-value of each peak was calculated using only the read count at the peak from the individual replicate and estimated the irreproducible discovery rate (IDR)^37 from the two sets of P-values that the replicates produced. […]
# Differentially accessible peaks from combined atlas were identified with […] by counting all read ends overlapping peaks in each condition. […]
# [1] = system: breast tumor samples from patients; assay: ATAC-seq of paired breast tumor biopsies from patients treated with BYL719; assay type: in vivo, human; settings: paired tumor biopsies prior to therapy and on-therapy
# Description: Starting from fastq files containing ATAC-seq paired-end reads, sequencing adaptors were removed using Trimmomatic^34. Trimmed reads were mapped to the hg19 human genome using Bowtie2^35 allowing at most 1 seed mismatch and keeping only uniquely aligned reads. Duplicates were removed using Picard (http://picard.sourceforge.net). For peak-calling the read start sites were adjusted (reads aligning to the +/−strand were offset by +4 bp/−5 bp, respectively) to represent the center of the transposon binding-event, as described in Buenrostro et al.^21 For each samples, ATAC-seq was run on two biological replicates. Peak calling was performed on each condition individually by pooling reads from biological replicates and using MACS2^36 with a permissive P-value threshold (−p 1e−2). To find a set of peaks that are reproducible across the two biological replicates of a given cell condition, we calculated the per-replicate P-value of each peak using only the read count at the peak from the individual replicate and estimated the irreproducible discovery rate (IDR)^37 from the two sets of P-values that the replicates produced. […] Differentially accessible peaks from this atlas were identified with edgeR^38 by counting all read ends overlapping peaks in each condition. edgeR was run with default settings, a fold-change threshold of 2 and FDR <0.01. […]
# [2] = system: ER-dependent genes in T47D and MCF7 cells; assay: RT-qPCR of ER-dependent genes in hormone depleted cells; assay type: cell-based, human; settings: cells treated with BYL719 (1 μM) for 24 h
# Description: All cell lines were obtained from ATCC and used at low passages. T47D cells were maintained in RPMI 1640 with 10% FBS, 1% L-glutamine and 1% penicillin-streptomycin. MCF7 cells were maintained in DF-12 DMEM Dulbecco medium with 10% FBS, 1% L-glutamine and 1% penicillin-streptomycin. HEK 293T cells were maintained in DMEM Dulbecco medium supplemented with 10% FBS, 1% L-glutamine and 1% penicillin-streptomycin. For RNA analysis, MCF7 cells or T47D cells underwent hormonal starvation. MCF7 and T47D were cultured for 3 days in phenol-red-free DF12 DMEM and phenol-red-free RPMI respectively, media was supplemented with 5% charcoal/dextran-treated FCS. Cells were induced with E2 (100 nM), BYL719 (1 μM) or vehicle (DMSO) for 24 hours.
# Total RNA was extracted from patient biopsies tissue using TRIzol (Life Technologies) and treated with DNAse before cDNA synthesis. cDNA synthesis was performed using the Bio-Rad cDNA synthesis kit according to the manufacturer's instructions. RNA was isolated from cells using the QIAGEN RNeasy kit. The qPCR SYBR green mix (Applied Biosystems) was used to amplify specific cDNA fragments with the oligonucleotides listed in Extended figure using the ViiA™ Real Time PCR system (Applied Biosystems). The data were analyzed by the change-in-threshold (2^−ΔΔCT) method using Actin or GAPDH as a housekeeping genes to obtain relative RNA expression. […]
# KMT2D = assay: ChIP-qPCR time course for KMT2D, H3K4me1 and H3K4me2 upon BYL719; assay type: cell-based, human; settings: BYL719 (1 μM) for 2, 4, 8, 12 and 24 h
# Description: (§1) Cells were crosslinked with 1% paraformaldehyde added directly to the culture medium to a final concentration of 1% and incubated at room temperature for 15 minutes. The crosslinked cells were quenched with ice-cold glycine for 5 minutes, washed with PBS and collected. The cells were then lysed with SDS lysis buffer (10 ml of 1% SDS, 10 mM EDTA, 50 mM Tris-HCl, pH 8.1) containing protease and phosphatase inhibitors for 15 minutes prior to sonication. Cells were sonicated in 10-s pulses for a total of 10 min. The sheared chromatin was diluted with ChIP Dilution buffer (0.01% SDS, 1.1% Triton X-100, 1.2 mM EDTA, 16.7 mM Tris-HCl, pH 8.1, 167 mM NaCl) and incubated overnight with Protein G Dynabeads (Thermo Fisher Scientific), which were pre-incubated with specific antibodies. ChIP antibodies to the following proteins were used: FOXA1 (ab5089) Abcam, PBX1 (H00005087-MO1) from Abnova, ER alpha (sc-543) from Santa Cruz and rabbit KMT2D homemade antibody which was generated by Eurogentec (third bleed) and affinity purified against GRARLKSTASSIC peptide (SEQ ID NO: 36). […]
# [3] = system: enhancers or promoters of canonical ER target genes in T47D and MCF7 cells; assay: ChIP-qPCR of ER, FOXA1, PBX1 and H3K4me1/2 occupancy at ER target genes; assay type: cell-based, human; settings: DMSO or BYL719 for 24 h
# Description: as §1
# MCF7 xenografts = assay: MCF7 inducible shRNA in vivo xenograft; set-up: species or system athymic Foxn1nu mice
# Description: Animals were maintained based on the institutional guidelines of Memorial Sloan Kettering Cancer Center (Protocol number 12-10-019). 6×10^6 MCF7 cells in 1:1 DF12 media/Matrigel (Corning) were injected subcutaneously into four to six week old female athymic Foxn1^nu mice. Mice were randomized when tumors reached ˜[…] of volume. 5 mice, 10 tumors were then treated with BYL719 (25 mg×kg^−1 in 0.5%) in carboxymethylcellulose (Sigma) daily for the indicated times. Tumors were collected at the end of the experiments, two to four hours after the last treatment.
# Two way t-tests were performed using GraphPad Prism (GraphPad Software), P-values are indicated in the respective graphs. All cellular experiments were repeated at least three times. The in vivo experiments contained 10 tumors for each treatment arm and the sample size was chosen to reflect a difference in means of 20% with a power of 90%. Before the commencement of the in vivo experiments, animals were measured and randomized in groups with similar average tumor volume. Bioinformatics statistics are indicated in the respective method descriptions.
smiles,measurement,setting,value
Cc1nc(NC(=O)N2CCC[C@H]2C(N)=O)sc1-c1ccnc(C(C)(C)C(F)(F)F)c1 [BYL719],"cell viability, KMT2D knockdown combined with BYL719",T47D and MCF7 cells; ER-positive cell lines,greater effect
same,viability of cells treated with BYL719 upon FOXA1 and PBX1 silencing,T47D and MCF7 cells; constitutive or inducible shRNAs,decrease the viability
same,co-occupancy of ER and FOXA1 at specific target loci,T47D cells; BYL719 (1 μM) for 24 h,increased co-occupancy of ER and FOXA1
same,ER binding events (ER ChIP-seq),T47D cells; DMSO or BYL719 for 24 h,induced differential ER binding
same,chromatin accessibility in regions responsive to PI3K inhibition,[1],increase in chromatin accessibility
same,expression of ER-dependent genes in the absence of KMT2D,[2],decrease of expression
same,KMT2D recruitment at regulatory regions,KMT2D,peaked at early hours
same,abundance of H3K4me1/2 occupying regulatory regions,KMT2D,elevated at the same time points
same,"binding of ER, FOXA1 and PBX1 to enhancers or promoters of canonical ER target genes",[3],significantly enhanced
same,antitumor effect of silencing KMT2D in the presence of BYL719,"MCF7 xenografts; MCF7 inducible shKMT2D xenografts, BYL719 daily 25 mg/kg",enhanced
same,anti-tumor activity of BYL719 with FOXA1 silencing,"MCF7 xenografts; MCF7 xenografts, inducible shFOXA1, BYL719 daily 25 mg/kg",markedly increased the anti-tumor activity

# Reference: patent US11248229B2, “Inhibition of KMT2D for the treatment of cancer” (MEMORIAL SLOAN-KETTERING CANCER CENTER, priority 2016, dated 2022)
